Data as given in patent US20210213063A1, “COMBINATION THERAPY WITH CHIMERIC ANTIGEN RECEPTOR (CAR) THERAPIES” (Novartis AG, priority 2018, published 2021).

How the values were obtained:
[1] = tested on: relapsed/refractory diffuse large B-cell lymphoma (DLBCL); test: JULIET (NCT02445248) pivotal phase 2 trial of tisagenlecleucel in adult r/r DLBCL; format: in vivo, human
Text: This Example describes the JULIET (NCT02445248) clinical trial, which is a single-arm, open-label, multicenter, global, pivotal phase 2 trial of tisagenlecleucel, a chimeric antigen receptor (CAR)-T cell therapy targeting CD19, that has shown a high rate of durable complete responses (CR) and a manageable safety profile in adult patients with relapsed/refractory (r/r) diffuse large B-cell lymphoma (DLBCL). The primary objective was met at the interim analysis, with an overall response rate (ORR) of 59% (CR, 43%; partial response [PR], 16%). An updated analysis of the JULIET trial is presented herein with 19 months of follow-up, an additional 5 months since the previous report.
The primary endpoint was ORR (CR+PR) per independent review committee. Efficacy results are reported for patients in the main cohort with ≥3 months follow-up or earlier discontinuation; safety is reported for all infused patients.
At data cutoff (21 May 2018), 167 patients were enrolled and 115 were infused (99 with US-manufactured [main cohort] and 16 with EU-manufactured [cohort A] tisagenlecleucel) with a single dose of tisagenlecleucel (median, 3.0×10^8 [range, 0.1-6.0×10^8] CAR19-positive viable T cells). 90% of patients received bridging therapy and 93% received lymphodepleting chemotherapy. Median time from infusion to data cutoff was 19.3 months. Median age was 56 years (range, 22-76); 23% were ≥65 years. At study entry, 77% of infused patients had stage III/IV disease, 17% had double/triple hits in MYC/BCL2/BCL6. 55% and 43% had germinal center and activated B-cell molecular subtypes, respectively. 51% of patients had received ≥3 prior lines of antineoplastic therapy (range, 1-6); 49% had undergone a prior ASCT. All 99 patients in the main cohort had ≥3 months of follow-up or discontinued earlier and were evaluable for efficacy. ORR was 54% (95% CI, 43%-64%) with 40% CR and 13% PR. ORR was consistent across prognostic subgroups (including prior ASCT and double/triple-hit lymphoma) Median duration of response (DOR) was not reached; the probability of being relapse-free was 66% (95% CI, 51%-78%) at 6 months and 64% (95% CI, 48%-76%) at 12 months. DOR was similar by age group (≥ vs <65y) and by relapsed or refractory status (Figure). Median OS among all infused patients was 11.1 months (95% CI, 6.6-NE); OS probability at month 12, 48% (95% CI, 38%-57%; max follow-up, 29 months). No patients proceeded to allogeneic/ASCT while in remission.

[2] = tested on: MCL; conditions: ibrutinib added to CART19 therapy

| Compound | Median OS ([1]; all infused patients, 95% CI 6.6-NE) | probability of being relapse-free ([1]; at 6 months, 95% CI 51%-78%) | probability of being relapse-free ([1]; at 12 months, 95% CI 48%-76%) | OS probability ([1]; at month 12, 95% CI 38%-57%) | CR ([1]; interim analysis) | overall response rate (ORR) ([1]; interim analysis) | partial response [PR] ([1]; interim analysis) | Median duration of response (DOR) ([1]; updated analysis) | ORR ([1]; updated analysis, data cutoff 21 May 2018, 99 patients main cohort, 95% CI 43%-64%) | CR ([1]; updated analysis, main cohort) | PR ([1]; updated analysis, main cohort) | CART19-mediated CRS [2] | survival of the mice [2] |
| --- | --- | --- | --- | --- | --- | --- | --- | --- | --- | --- | --- | --- | --- |
| tisagenlecleucel | 11.1 months | 66% | 64% | 48% | 43% | 59% | 16% | not reached | 54% | 40% | 13% | – | – |
| C=CC(=O)N1CCC[C@@H](n2nc(-c3ccc(Oc4ccccc4)cc3)c3c(N)ncnc32)C1 [ibrutinib, 1-[(3R)-3-[4-Amino-3-(4-phenoxyphenyl)-1H-pyrazolo[3,4-d]pyrimidin-1-yl]piperidin-1-yl]prop-2-en-1-one] | – | – | – | – | – | – | – | – | – | – | – | reduced the CART19-mediated CRS | prolonged survival |
